32 compounds from patent publication US11453666B2, “Autotaxin inhibitory compounds” (Cancer Research Technology Limited, priority 2015, dated 2022) can be followed below.

pIC50: −log10 of the molar value.

The target of one test is human recombinant ATX (Homo sapiens, UniProt Q13822). Kind of test: Autotaxin (ATX) activity Quanta Red assay. In kind it is biochemical. The following applies: Table 2: additional compounds tested for ATX activity (Quanta Red Assay); read-out: Activity. The procedure, abridged: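 Recombinant human ATX reaction stopped after 2 h with Quanta Red stop solution; fluorescence read at […]. Controls with DMSO, with and without ATX; IC50 in duplicate.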
Take `COc1ccc(Cn2c(CCC(=O)NCc3ccc(Cl)cc3)nc3cccnc32)cc1` [Example 218, N-(4-Chloro-benzyl)-3-[3-(4-methoxy-benzyl)-3H-imidazo[4,5-b]pyridin-2-yl]-propionamide]: the pIC50 is 7.64.

With `COc1ccc(Cn2c(CCC(=O)NCCc3cccc(C)c3)nc3cccnc32)cc1` [Example 229, 3-[3-(4-Methoxy-benzyl)-3H-imidazo[4,5-b]pyridin-2-yl]-N-(2-m-tolyl-ethyl)-propionamide], the pIC50 was 6.33.

Regarding `COc1ccc(Cn2c(CCC(=O)NCc3ccc4c(c3)OCO4)nc3cccnc32)cc1` [Example 234, N-Benzo[1,3]dioxol-5-ylmethyl-3-[3-(4-methoxy-benzyl)-3H-imidazo[4,5-b]pyridin-2-yl]-propionamide], the pIC50 was 6.14.

The same test, now with this note: human recombinant ATX 0.8 μg/mL, 2 hours at room temperature, IC50 determined in duplicate; read-out: Activity (ATX activity, Quanta Red assay; IC50).
In the case of `C[C@H](NC(=O)CS(=O)(=O)c1nc2cccnc2n1Cc1ccc(OC(F)(F)F)cc1)c1ccc(F)cc1` [Example 150, N—[(S)-1-(4-fluoro-phenyl)-ethyl]-2-[3-(4-trifluoromethoxy-benzyl)-3H-imidazo[4,5-b]pyridine-2-sulfonyl]-acetamide], the pIC50 was 5.54.

As to `C[C@H](NC(=O)CCc1nc2ccncc2n1Cc1ccc(OC(F)(F)F)cc1)c1ccc(F)cc1` [Example 124, N-[(S)-1-(4-Fluoro-phenyl)-ethyl]-3-[3-(4-trifluoromethoxy-benzyl)-3H-imidazo[4,5-c]pyridin-2-yl]-propionamide], the pIC50 is 8.10.

`C[C@H](NC(=O)COc1nc2cccnc2n1Cc1ccc(OC(F)(F)F)cc1)c1ccc(Cl)cc1` [Example 152, N—[(S)-1-(4-chloro-phenyl)-ethyl]-2-[3-(4-trifluoromethoxy-benzyl)-3H-imidazo[4,5-b]pyridin-2-yloxy]-acetamide]: the pIC50 was 8.30.

Turning to `C[C@H](NC(=O)NCc1nc2cccnc2n1Cc1ccc(F)cc1)c1ccc(F)cc1` [Example 160, 1-[3-(4-Fluoro-benzyl)-3H-imidazo[4,5-b]pyridin-2-ylmethyl]-3-[(S)-1-(4-fluoro-phenyl)-ethyl]-urea], the pIC50 is 7.10.

The test is the same for the next values; noted with them: read-out: Activity (ATX activity, Quanta Red assay; IC50).
In the case of `C[C@H](NC(=O)OCc1nc2cccnc2n1Cc1ccc(F)cc1)c1ccc(F)cc1` [Example 166, [(S)-1-(4-fluoro-phenyl)-ethyl]-carbamic acid 3-(4-fluoro-benzyl)-3H-imidazo[4,5-b]pyridin-2-ylmethyl Ester], the pIC50 was 6.47.

For the compound `O=C(CCc1nc2cccnc2n1Cc1ccc(OC(F)(F)F)cc1)NC(CO)c1ccc(C(F)(F)F)cc1` (centres unmarked) [Example 23, N-[2-Hydroxy-1-(4-trifluoromethyl-phenyl)-ethyl]-3-[3-(4-trifluoromethoxy-benzyl)-3H-imidazo[4,5-b]pyridin-2-yl]-propionamide], the pIC50 was 8.40.

Take `O=C(CCc1nc2cccnc2n1Cc1ccc(OC(F)(F)F)cc1)NC[C@H](O)c1ccccc1` [Example 37, N-((R)-2-Hydroxy-2-phenyl-ethyl)-3-[3-(4-trifluoromethoxy-benzyl)-3H-imidazo[4,5-b]pyridin-2-yl]-propionamide]: the pIC50 was 8.15.

Take `O=C(CCc1nc2cccnc2n1Cc1ccc(OC(F)(F)F)cc1)NCC1CCN(C(=O)C2CC2)CC1` [Example 215, N-(1-Cyclopropanecarbonyl-piperidin-4-ylmethyl)-3-[3-(4-trifluoromethoxy-benzyl)-3H-imidazo[4,5-b]pyridin-2-yl]-propionamide]: the pIC50 is 7.09.

In the case of `O=C(CCc1nc2cccnc2n1Cc1ccc(OC(F)(F)F)cc1)N[C@@H]1c2ccccc2C[C@H]1O` [Example 9, N-((1R,2R)-2-Hydroxy-indan-1-yl)-3-[3-(4-trifluoromethoxy-benzyl)-3H-imidazo[4,5-b]pyridin-2-yl]-propionamide], the pIC50 was 9.00.

As to `O=C(CCc1nc2cccnc2n1Cc1ccc(F)c(F)c1)NC(CO)c1ccc(OC(F)(F)F)cc1` (centres unmarked) [Example 39, 3-[3-(3,4-Difluoro-benzyl)-3H-imidazo[4,5-b]pyridin-2-yl]-N-[2-hydroxy-1-(4-trifluoromethoxy-phenyl)-ethyl]-propionamide], the pIC50 is 8.15.

In the case of `C[C@H](NC(=O)CCc1nc2cccnc2n1Cc1ccc(F)c(F)c1)c1ccc(CN2CCOCC2)cc1` [Example 206, 3-[3-(3,4-difluoro-benzyl)-3H-imidazo[4,5-b]pyridin-2-yl]-N—[(S)-1-(4-morpholin-4-ylmethyl-phenyl)-ethyl]-propionamide], the pIC50 is 8.52.

Consider `COc1ccc(Cn2c(CCC(=O)N(C)Cc3ccccc3)nc3cccnc32)cc1` [Example 102], for which the pIC50 is 6.25.

With `C[C@@H]1CN(c2ccc([C@H](C)NC(=O)CCc3nc4cccnc4n3Cc3ccc(OC(F)(F)F)cc3)cc2)C[C@H](C)N1` [Example 171, N-{(S)-1-[4-((cis)-3,5-Dimethyl-piperazin-1-yl)-phenyl]-ethyl}-3-[3-(4-trifluoromethoxy-benzyl)-3H-imidazo[4,5-b]pyridin-2-yl]-propionamide], the pIC50 is 8.70.

Turning to `COc1ccc(CNC(=O)CCc2nc3cc(C)cnc3n2Cc2ccc(OC(F)(F)F)cc2)cc1` [Example 53, N-(4-Methoxy-benzyl)-3-[6-methyl-3-(4-trifluoromethoxy-benzyl)-3H-imidazo[4,5-b]pyridin-2-yl]-propionamide], the pIC50 was 7.42.

Consider `O=C(CCc1nc2cccnc2n1Cc1ccc(OC(F)(F)F)cc1)NC(CO)c1ccc(OC(F)(F)F)cc1` (centres unmarked) [Example 20, N-[2-Hydroxy-1-(4-trifluoromethoxy-phenyl)-ethyl]-3-[3-(4-trifluoromethoxy-benzyl)-3H-imidazo[4,5-b]pyridin-2-yl]-propionamide], for which the pIC50 is 8.52.

As for `O=C(CCc1nc2cccnc2n1Cc1ccc(OC(F)(F)F)cc1)N[C@@H]1c2ccccc2C[C@@H]1O` [Example 8, N-((1R,2S)-2-Hydroxy-indan-1-yl)-3-[3-(4-trifluoromethoxy-benzyl)-3H-imidazo[4,5-b]pyridin-2-yl]-propionamide], the pIC50 was 9.00.

On to `O=C(CCc1nc2cccnc2n1Cc1cccs1)N[C@H](Cc1ccccc1)C(=O)O` [Example 202, (R)-3-Phenyl-2-[3-(3-thiophen-2-ylmethyl-3H-imidazo[4,5-b]pyridin-2-yl)-propionylamino]-propionic acid], for which the pIC50 was 6.09.

With `O=C(CCc1nc2cccnc2n1Cc1ccc(OC(F)(F)F)cc1)N[C@@H](Cc1ccc(O)cc1)C(=O)O` [Example 200, (S)-3-(4-Hydroxy-phenyl)-2-{3-[3-(4-trifluoromethoxy-benzyl)-3H-imidazo[4,5-b]pyridin-2-yl]-propionylamino}-propionic acid], the pIC50 is 6.33.

`CN(C)c1ccc(CNC(=O)CCc2nc3cccnc3n2Cc2ccc(F)c(F)c2)cc1` [Example 63, 3-[3-(3,4-Difluoro-benzyl)-3H-imidazo[4,5-b]pyridin-2-yl]-N-(4-dimethylamino-benzyl)-propionamide]: the pIC50 is 6.86.

As for `COc1ccc(CNC(=O)CCc2nc3cc(C)cnc3n2Cc2ccc(F)cc2)cc1` [Example 109, 3-[3-(4-Fluoro-benzyl)-6-methyl-3H-imidazo[4,5-b]pyridin-2-yl]-N-(4-methoxy-benzyl)-propionamide], the pIC50 was 6.73.

On to `C[C@H](NC(=O)CCc1cc2cccnc2n1Cc1ccc(OC(F)(F)F)cc1)c1ccc(F)cc1` [Example 137, N—[(S)-1-(4-fluoro-phenyl)-ethyl]-3-[1-(4-trifluoromethoxy-benzyl)-1H-pyrrolo[2,3-b]pyridin-2-yl]-propionamide], for which the pIC50 is 8.00.

On to `CN(C)c1ccc(CNC(=O)CCc2nc3cccnc3n2Cc2ccc(F)cc2)cc1` [Example 58, N-(4-Dimethylamino-benzyl)-3-[3-(4-fluoro-benzyl)-3H-imidazo[4,5-b]pyridin-2-yl]-propionamide], for which the pIC50 is 7.21.

For the compound `O=C(CSc1nc2cccnc2n1Cc1ccc(OC(F)(F)F)cc1)N[C@@H](CO)c1ccccc1` [Example 142, N-((R)-2-Hydroxy-1-phenyl-ethyl)-2-[3-(4-trifluoromethoxy-benzyl)-3H-imidazo[4,5-b]pyridin-2-ylsulfanyl]-acetamide], the pIC50 was 9.00.

For `O=C(CCc1nc2cccnc2n1Cc1ccc(OC(F)(F)F)cc1)N[C@@H](C(=O)O)C1CCCCC1` [Example 194, (R)-cyclohexyl-{3-[3-(4-trifluoromethoxy-benzyl)-3H-imidazo[4,5-b]pyridin-2-yl]-propionylamino}-acetic Acid], the pIC50 was 9.00.

Turning to `COc1ccc(Cn2c(CCC(=O)NCc3ccccc3C)nc3cccnc32)cc1` [Example 106, 3-[3-(4-Methoxy-benzyl)-3H-imidazo[4,5-b]pyridin-2-yl]-N-(2-methyl-benzyl)-propionamide], the pIC50 is 7.01.

Consider `Cc1ccccc1CNC(=O)CCc1nc2cccnc2n1Cc1ccccc1` [Example 5, 3-(3-Benzyl-3H-imidazo[4,5-b]pyridin-2-yl)-N-(2-methyl-benzyl)-propionamide], for which the pIC50 was 6.07.

With `C[C@H](NC(=O)CCc1nc2cccnc2n1Cc1ccc(OC(F)(F)F)cc1)C1CC1` [Example 60, N-((S)-1-Cyclopropyl-ethyl)-3-[3-(4-trifluoromethoxy-benzyl)-3H-imidazo[4,5-b]pyridin-2-yl]-propionamide], the pIC50 was 7.05.

As to `Cc1ccc([C@H](C)NC(=O)CCc2nc3ccncc3n2Cc2ccc(F)cc2)cc1` [Example 131, 3-[3-(4-Fluoro-benzyl)-3H-imidazo[4,5-c]pyridin-2-yl]-N-((S)-1-p-tolyl-ethyl)-propionamide], the pIC50 is 7.64.

Take `C[C@H](NC(=O)CCc1nc2cccnc2n1Cc1ccc(OC(F)(F)F)cc1)c1ccc(N2CCN[C@@H](C)C2)cc1` [Example 176, N-{(S)-1-[4-((S)-3-Methyl-piperazin-1-yl)-phenyl]-ethyl}-3-[3-(4-trifluoromethoxy-benzyl)-3H-imidazo[4,5-b]pyridin-2-yl]-propionamide]: the pIC50 is 8.52.
